# Test results taken from US20160297829A1, “METHOD FOR PRODUCING AVENACIOLIDES AND USES THEREOF” (Academia Sinica, priority 2015, published 2016).
# Several values for one entry are separate records, joined by “and”; a condition that tells them apart may be missing. Equal values may be shown once. Read-outs that look alike come from different tables or passages of the source.
# Columns and labels:
# [1] = target: E coli MurA (Escherichia coli, UniProt P0A749); test: biochemical; conditions: IC50, MurA activity, E coli MurA 25 nM, UNAG 310 μM, PEP 620 μM, pH 7.6; 5 replicates
# E coli MurA, sequence (P0A749 whole entry): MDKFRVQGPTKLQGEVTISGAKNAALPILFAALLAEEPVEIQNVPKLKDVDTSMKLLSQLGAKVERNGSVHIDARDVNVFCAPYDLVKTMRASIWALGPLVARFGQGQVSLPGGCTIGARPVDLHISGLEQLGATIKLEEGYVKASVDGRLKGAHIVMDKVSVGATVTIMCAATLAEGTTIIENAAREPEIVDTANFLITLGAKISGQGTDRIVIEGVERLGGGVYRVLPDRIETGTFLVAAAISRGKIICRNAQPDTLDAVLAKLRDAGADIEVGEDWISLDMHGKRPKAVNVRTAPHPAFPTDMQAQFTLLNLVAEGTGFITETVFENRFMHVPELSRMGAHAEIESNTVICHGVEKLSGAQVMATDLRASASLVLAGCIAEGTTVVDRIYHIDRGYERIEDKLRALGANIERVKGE
# Procedure: (§1) In a standardized assay, MuraA enzymes were pre-incubated with the substrate UNAG and an inhibitor for 10 min at 37° C. To determine the influence of UNAG on the binding process, experiments were performed in the absence of UNAG during pre-incubation period. The reaction was initiated by the addition of the second substrate PEP, resulting in a total volume of […] with the following concentrations: E. Coli MurA or MRSA MurA 25 nM, UNAG 310 μM, PEP 620 μM, 50 mM HEPES, pH 7.6, DMSO 1% (v/v). The reaction was stopped after 60 min at 37° C. by adding 100 μL of Lanzetta reagent containing malachite green solution (0.045% (w/v)) and ammonium heptamolybdate (8.4% (v/v)) at a ratio of 3:1 and with 0.03% (w/v) Tergitol NP-40 as dye-stabilizing detergent. After 10 min, the absorbance at 620 nm was measured using a FlexStation 3 Microplate Reader (Molecular Devices). Finally, dose-response curves were generated by measuring the enzyme activity of five replicates at least 8 different compound concentrations. The resulting data were plotted and IC50 values indicating the concentration of the compound with a residual activity of 50% were determined.
# (§2) Various types of MuraA enzymes, including those from E. Coli, wild type MRSA^WT, and MRSA^C119D mutant strain, were treated with any of the compounds 10d, 13d, or 14, as well as fosfomycin, in which MRSA^WT represents wild type MurA, and MRSA^C119D mutant strain represents MRSA strain in which the 119th amino acid residue, cysteine (C), is replaced by aspartic acid (D).
# [2] = tested on: E. coli ATCC 25922; test: Minimum Inhibition Concentration (MIC) assay; format: cell-based, Escherichia Coli
# From the text: (§3) Various strains of microorganisms were used in the present disclosure, including Acinetobacter baumannii (ATCO 17978), Staphylococcus aureus (ATCO 29213), methicillin-resistant Staphylococcus aureus (MRSA) (ATCO 33592), Bacillus subtilis (ATCO 23857), and Escherichia Coli (ATCO 25922), which were purchased from American Type Culture Collection (ATCO), and cultured in Mueller-Hinton (MH) II agar plates or in MH broth.
# (§4) Minimum Inhibition Concentration (MIC) Assay
# (§5) MIC assay is a standardized assay performed in accordance with the guidelines issued by Clinical and Laboratory Standard Institute (CLSI) that measures the ability of certain agent and/or a surface in inhibiting the growth of a microorganism or killing the microorganism after being in contact with that microorganism for 24 hrs. Accordingly, MIC is the lowest concentration of an anti-bacterial agent and/or a surface that will inhibit the visible growth of a microorganism after overnight culture.
# (§6) In practice, microorganisms grown on the agar plates were re-suspended in phosphate-buffered saline (PBS) to an OD 600 of 0.1. Suitable amount of this suspension was added to the appropriate broth media at a final concentration of 5×10^5 colony-forming units (CFU)/mL. Then, 98 μL of the broth+cell solution for each strain was added to each well of 96-well assay plate. Solutions of the present compounds were freshly prepared in DMSO and then serial diluted in 2-fold steps in DMSO, resulting in a final concentrations of 0.004-256 μg/mL when diluted 1:50 in test broth. The initial inoculum for each strain was serially diluted in PBS and plated on appropriate agar plate media to ensure that the assay contained the desired number of CFU. MIC assay plates were incubated overnight at 37° C. under aerobic conditions.
# [3] = tested on: S. aureus ATCC 33592 (MRSA strain); test: Minimum Inhibition Concentration (MIC) assay; format: cell-based, methicillin-resistant Staphylococcus aureus (MRSA); conditions: Staphylococcus aureus, overnight at 37° C.
# From the text: as §3, §4, §5, §6
# [4] = tested on: MRSA; test: Transmission Electron Microscopy (TEM) of treated bacteria; format: cell-based, methicillin-resistant Staphylococcus aureus (MRSA)
# Procedure: (§7) FIG. 1 are TEM photographs of MRSA (a-f) and A. baumannii (g-l) after being treated with the compounds of example 2 (128 μM) and fosfomycin (64 μM), in which (a) and (g) are un-treated S. aureus and A. baumannii; (b) and […] are those treated with the compound 10d, while (c) and (i) are treated with the compound of 13d; (d) and (j) are treated with the compound 14; (e) and (k) are treated with the compound 15; (f) and […] are treated with fosfomycin, in which CW, CM, IM, and OM respectively denote cell walls, cell membranes, inner membranes, and outer membranes; and
# (§8) Transmission Electron Microscopy (TEM)
# (§9) Exponential phase bacteria were treated with compounds at 4×MIC for 1 hr at 37° C. Then, the cells were washed and fixed and cut into thin slices and photographed using a Thin-layer TEM.
# [5] = tested on: A. baumannii 17978; test: Minimum Inhibition Concentration (MIC) assay; format: cell-based, Acinetobacter baumannii
# From the text: as §3, §4, §5, §6
# [6] = tested on: Mice macrophage cell line RAW 264.2; test: AlamaBlue cell viability assay; format: cell-based; conditions: 24 hrs
# Procedure: Mice macrophage cell line RAW 264.2 was used in the present disclosure. RAW 264.2 cells were cultured in RPMI 1640 medium supplemented with 10% fetal calf serum (FCS) and maintained in an environment of 5% CO2/95% air at 37° C.
# AlamaBlue Cell Viability Assay
# The alamarBlue cell viability assay uses a non-toxic, water-soluble resazurin dye that yields a fluorescent signal and a colorimetric change when incubated with metabolically active cells. The assay is based on the findings that metabolically active cells (or viable cells) may keep the culture medium in a reduced state, whereas the non-viable cells will turn the culture medium into an oxidized state, thereby rendering the redox indicator in the medium (i.e., resazurin dye) to convert from its non-fluorescent oxidized form (blue color) to its fluorescent reduced form (pink color). Thus, the cell viability may be monitored by the fluorescent signal changes at 590 nm.
# Cells were plated in 96-well plates at a density of 5,000 cells/100 μL/well for 24 hrs, then 10 μL AlamarBlue™ reagent (AbD Serotee Ltd., Oxford, UK) and various concentrations (i.e., 12.5, 25, 50 or 100 μM) of the test compound (e.g., the compound of example 2) were added, and incubated for 24 hrs. The plates were then placed at a fluorescence reader and fluorescent signals at 590 nm were measured.
# In general, mice macrophages were treated with various concentrations of the compounds of example 2 for 24 hrs, the viability of cells were then analyzed by fluorescence analysis in accordance with procedures described in “Materials and Methods” section.
# [7] = tested on: A. baumannii; test: Transmission Electron Microscopy (TEM) of treated bacteria; format: cell-based, Acinetobacter baumannii
# Procedure: as §7, §8, §9
# [8] = tested on: gram-positive bacteria, including MRSA; test: Growth inhibition (MIC), summary over strains; format: cell-based; conditions: for MIC: Staphylococcus aureus, MRSA, text summary for compounds 10d and 13d over gram-positive strains; for anti-bacteria activity: statement in words
# From the text: as §4, §5, §6
# In this example, the inhibitory effect of the isolated avenaciolide derivatives of example 2 (i.e., compounds 10d, 13d, 14, and 15) on the growth of gram-positive bacteria, including MRSA, were tested; and the results are summarized in Table 1.
# [9] = target: T1, MRSA MurA^C119D (Staphylococcus aureus, UniProt Q5HEA0, C119D); test: MuraA assay (malachite green); format: biochemical, methicillin-resistant Staphylococcus aureus (MRSA); conditions: for IC50, MurA activity: MRSA MurA C119D mutant (fosfomycin resistant), 5 replicates
# T1 sequence (Q5HEA0 1-421 C119D): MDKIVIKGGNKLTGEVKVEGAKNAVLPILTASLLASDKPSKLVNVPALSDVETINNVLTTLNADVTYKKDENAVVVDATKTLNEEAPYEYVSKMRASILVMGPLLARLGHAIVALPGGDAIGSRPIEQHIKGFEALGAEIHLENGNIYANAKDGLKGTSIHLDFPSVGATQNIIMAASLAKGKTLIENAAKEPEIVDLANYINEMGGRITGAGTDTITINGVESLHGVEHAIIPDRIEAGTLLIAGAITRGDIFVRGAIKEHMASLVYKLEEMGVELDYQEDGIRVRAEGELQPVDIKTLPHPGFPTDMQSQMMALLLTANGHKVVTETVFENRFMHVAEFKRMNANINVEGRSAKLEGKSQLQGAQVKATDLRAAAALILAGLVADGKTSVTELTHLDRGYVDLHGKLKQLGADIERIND
# Procedure: as §1, §2
# [10] = target: MRSA MurA^WT (Staphylococcus aureus, UniProt Q5HEA0); test: MuraA assay (malachite green); format: biochemical, methicillin-resistant Staphylococcus aureus (MRSA); conditions: IC50, MurA activity, MRSA MurA wild type 25 nM, UNAG 310 μM, PEP 620 μM, pH 7.6; 5 replicates
# Procedure: as §1, §2
# [11] = tested on: B. subtilis ATCC 23857; test: Minimum Inhibition Concentration (MIC) assay; format: cell-based; conditions: Bacillus subtilis, ATCC23857
# From the text: as §3, §4, §5, §6
# [12] = tested on: S. aureus ATCC 29213; test: Minimum Inhibition Concentration (MIC) assay; format: cell-based; conditions: Staphylococcus aureus, ATCC29213, overnight at 37° C.
# From the text: as §3, §4, §5, §6
# [13] = Escherichia coli, ATCC25922, overnight at 37° C., read-out: MIC
# [14] = 128 μg/mL (FIG. 1 legend: 128 μM), treated for an hr
# [15] = 17978, Acinetobacter baumannii, read-out: MIC for gram-negative bacteria
# [16] = Acinetobacter baumannii, A. baumannii 17978, overnight at 37° C., read-out: MIC
# [17] = 12.5 or 25 μM, fluorescence 590 nm
# [18] = 50 or 100 μM, fluorescence 590 nm
# [19] = B. subtilis ATCC 23857, overnight at 37° C., read-out: MIC
# [20] = fosfomycin 64 μg/mL, positive control
SMILES,IC50 [1],"MIC [2, 13]",MIC [3],"cell wall structure in TEM photographs [4, 14]","MIC [5, 15]","MIC [5, 16]","growth (viability) of macrophages [6, 17]","growth (viability) of macrophages [6, 18]","cell wall structure in TEM photographs [7, 14]",MIC [8],IC50 [9],IC50 [10],"MIC [11, 19]",MIC [12],anti-bacteria activity [8],"IC50, MurA activity [9]",other results
C=C1C(=O)O[C@H]2C(=O)O[C@H](CCCCCCCC)[C@@H]12 [Compound 10d],0.9 to 10.8 µM and 0.9 µM,128 µg/mL,32 µg/mL,ruptured,256 µg/mL,256 µg/mL,slightly affected,significant growth inhibition,not affected,16 to 32 µg/mL,21.5 µM,8.3 µM,64 µg/mL,16 µg/mL,,,
C=C(C(=O)OC)[C@@H]1[C@@H](CCCCCCCC)OC(=O)[C@@H]1O [Compound 13d],0.9 to 10.8 µM and 2.8 µM,128 µg/mL,16 µg/mL,ruptured,256 µg/mL,256 µg/mL,slightly affected,significant growth inhibition,not affected,16 to 32 µg/mL,7.9 µM,6.7 µM,32 µg/mL,32 µg/mL,,,
C=C(C(=O)O)[C@@H]1[C@@H](CCCCCCCC)OC(=O)[C@@H]1O [Compound 14],0.9 to 10.8 µM and 10.8 µM,,256 µg/mL,slightly affected,,,slightly affected,significant growth inhibition,completely unaffected,,,~71 µM and 71 µM,256 µg/mL,256 µg/mL,"neither compound 14, nor compound 15 possessed any anti-bacteria activity",in-effective and No,"MIC ([2]; overnight at 37° C.): no; MIC ([5]; A. baumannii 17978, overnight at 37° C.): no"
CCCCCCCC[C@H]1OC(=O)[C@@H]2OC(=O)[C@@H](C)[C@H]12 [Compound 15],,,,neither MRSA nor A. baumannii was affected,,,,,neither MRSA nor A. baumannii was affected,,,,,,"neither compound 14, nor compound 15 possessed any anti-bacteria activity",,"growth (viability) of macrophages ([6]; various concentrations (12.5, 25, 50 or 100 μM)): completely un-affected"
"C[C@@H]1O[C@@H]1P(=O)(O)O [fosfomycin, reference compound]",0.4 µM,64 µg/mL,64 µg/mL,,,,,,,,,1.6 µM,,4 µg/mL,,failed to suppress and No,"cell wall structure in TEM photographs [4, 20]: ruptured; MIC ([5]; Acinetobacter baumannii, 17978): 256 µg/mL; cell wall structure in TEM photographs [7, 20]: ruptured; MIC [11]: 128 µg/mL"
